This is an account of results in EP4763845A1, “CYANO AROMATIC RING DERIVATIVE AND PHARMACEUTICAL USE THEREOF” (Haisco Pharmaceutical Group Co., Ltd., priority 2023, dated 2025).

Where two headings read alike, the source gives them in different places.

In one data set the target is T1, hERG potassium channel (Homo sapiens, UniProt Q12809).
T1 construct: expressed in transfected cells; host or cells: CHO cells stably expressing hERG
As to the kind of experiment: hERG potassium ion channel test (manual patch-clamp, CHO cells). The class given is cell-based. The text has this: Experimental platform: Electrophysiological manual patch-clamp system
Cell line: Chinese hamster ovary (CHO) cell lines stably expressing hERG potassium ion channel
Experimental method: In Chinese Hamster Ovary (CHO) cells stably expressing hERG potassium channel, whole cell patch-clamp technique was used to record hERG potassium channel current at room temperature. The glass microelectrode was made of a glass electrode blank (BF150-86-10, Sutter) by a puller. The tip resistance after filling the liquid in the electrode was about 2-5 MΩ. The glass microelectrode can be connected to the patch-clamp amplifier by inserting the glass microelectrode into an amplifier probe. The clamping voltage and data recording were controlled and recorded by the pClamp 10 software through a computer. The sampling frequency was 10 kHz, and the filtering frequency was 2 kHz. After the whole cell records were obtained, the cells were clamped at -80 mV, and the step voltage that induced the hERG potassium current (I hERG) was depolarised from -80 mV to +20 mV for 2 s, then repolarised to -50 mV, and returned to -80 mV after 1 s. This voltage stimulation was given every 10 s, and the administration process was started after the hERG potassium current was confirmed to be stable (at least 1 minute). The compound was administered for at least 1 minute at each test concentration, and at least 2 cells (n ≥ 2) were tested at each concentration.
Data processing: Data analysis processing was carried out by using pClamp 10, GraphPad Prism 5 and Excel software.
Compound IC50 was calculated using GraphPad Prism 5 software by fitting according to the following equation: Y = Bottom + (Top−Bottom)/(1+10^(∧)((LogIC50−X)*HillSlope)) [formula] where X represents the Log value of the tested concentration of the test sample, Y represents the inhibition percentage at the corresponding concentration, and Bottom and Top represent the minimum and maximum inhibition percentage, respectively.

The target in the next data set is T2, AR protein (Homo sapiens, UniProt P10275).
T2 construct: VCap is a human prostate cancer cell line purchased from ATCC; host or cells: VCaP human prostate cancer cells
T2 sequence (P10275 1-920): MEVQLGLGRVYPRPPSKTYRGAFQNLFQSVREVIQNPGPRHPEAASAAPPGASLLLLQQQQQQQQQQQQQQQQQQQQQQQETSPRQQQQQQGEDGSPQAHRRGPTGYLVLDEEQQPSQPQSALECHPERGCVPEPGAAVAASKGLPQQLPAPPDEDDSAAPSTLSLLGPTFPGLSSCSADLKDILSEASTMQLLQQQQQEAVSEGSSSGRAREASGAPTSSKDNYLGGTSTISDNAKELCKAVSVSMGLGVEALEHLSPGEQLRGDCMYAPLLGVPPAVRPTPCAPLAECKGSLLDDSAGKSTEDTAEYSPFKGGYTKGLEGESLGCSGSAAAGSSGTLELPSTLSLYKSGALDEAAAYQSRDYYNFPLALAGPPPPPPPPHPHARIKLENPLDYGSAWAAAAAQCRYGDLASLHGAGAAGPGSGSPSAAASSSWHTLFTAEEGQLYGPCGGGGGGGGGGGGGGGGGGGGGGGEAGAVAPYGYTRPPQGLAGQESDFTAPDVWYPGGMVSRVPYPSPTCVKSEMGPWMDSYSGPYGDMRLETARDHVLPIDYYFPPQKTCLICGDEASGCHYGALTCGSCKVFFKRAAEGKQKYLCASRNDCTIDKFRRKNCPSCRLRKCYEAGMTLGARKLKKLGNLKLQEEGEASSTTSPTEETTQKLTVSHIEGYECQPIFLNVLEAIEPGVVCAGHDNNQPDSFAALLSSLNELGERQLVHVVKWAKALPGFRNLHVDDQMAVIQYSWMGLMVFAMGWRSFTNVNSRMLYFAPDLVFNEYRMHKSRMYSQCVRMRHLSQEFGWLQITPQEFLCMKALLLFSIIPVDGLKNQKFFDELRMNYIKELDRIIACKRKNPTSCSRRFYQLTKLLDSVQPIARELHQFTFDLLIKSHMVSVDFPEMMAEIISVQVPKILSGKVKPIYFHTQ
As to the kind of experiment: Detection of AR degradation in VCaP cells (automated western blot). The conditions noted are these: for DC50: degradation of AR protein in VCaP cells, 24 hours incubation, read-out: DC50. Format: cell-based. On the procedure: VCap is a human prostate cancer cell line purchased from ATCC and cultured under the following conditions: DMEM + 10% FBS + 1% penicillin-streptomycin solution. The cells were cultured in a 37°C, 5% CO2 incubator. The cells were seeded in a 6-well plate, with 5 × 10^5 cells/well. After seeding, compounds at various concentrations were added, and the plate was incubated for 24 hours in the 37°C, 5% CO2 incubator. Following incubation, the cells were harvested and RIPA lysis buffer (beyotime, Cat. P0013B) was added. The cells were lysed on ice for 15 minutes and centrifuged at 12,000 rpm at 4°C for 10 minutes. The supernatant protein samples were collected and the protein was quantified using the BCA kit (Beyotime, Cat. P0009). Then the protein was diluted to 0.25 mg/mL. The expressions of AR (CST, Cat.5153S) and the internal reference β-actin (CST, Cat. 3700S) were detected using a fully automated western blot quantitative analyser (Proteinsimple). Using the "Compass for SW" software, the relative peak area of AR was calculated when the internal reference area was 10,000. The proportion of AR relative to the solvent control group at various drug concentrations was calculated according to Equation (1), where ARtreat represents the relative peak area of the compound-treated group, and ARsolvent represents the relative peak area of the solvent control group. The processed data obtained from Equation (1) were analysed using GraphPad Prism 8.3.0 software, and the DC50 value was calculated using a four-parameter nonlinear regression model. The degradation rate at a specified concentration was determined as 100-AR%. AR% = ARtreat/ ARsolvent × 100% [formula]

Data set [1] in a line: Pharmacokinetic test in rats. Format: in vivo, SD rats. The conditions noted are these: i.g. (5 mg/kg); for AUC(0-t): rat, po. On the procedure: Experimental objective: In this experiment, a single dose of the test compound was administered to SD rats via intravenous administration and intragastric gavage, and the concentration of the test compound in plasma of the rats was measured to evaluate the pharmacokinetic profile of the test compound in the rats.
Experimental animals: Male SD rats, 200-220 g, 6 rats/compound, purchased from Chengdu Ddossy Experimental Animals Co., Ltd.
Experimental method: On the day of the experiment, 6 SD rats were randomly grouped according to their body weights. The animals were fasted with water available for 12 to 14 h one day before the administration, and were fed 4 h after the administration. Table 3 Administration information of pharmacokinetic test in rats
Sampling: Before and after the administration, 0.1 mL of blood was taken from the orbits under isoflurane anaesthesia, and placed in an EDTAK2 centrifuge tube. Centrifugation was carried out at 5000 rpm at 4°C for 10 min, and the plasma was collected.
The plasma collection time points for IV&PO groups were 0, 5 min, 15 min, 30 min, 1 h, 2 h, 4 h, 7 h, 24 h, and 48 h.
Before analysis and detection, all samples were stored at -60°C. The samples were analysed quantitatively by LC-MS/MS. Table 4 Pharmacokinetic parameters of compounds of the present invention in plasma of rats

The subject of another data set is VCaP cells. As to the kind of experiment: VCaP cell proliferation inhibition experiment (CellTiter-Glo). The class given is cell-based. As to conditions: Homo sapiens, 168 h. On the procedure:
After centrifugation and resuspension, viable cell counting was performed using a Vi-Cell XR cell counter. […] Then, 180 µl of the cell suspension was added per well to a 96-well cell culture plate at a cell density of 7,500 cells/well. At the time of seeding, T0 wells were also prepared. The following day, R1881 at a final concentration of 0.1 nM and compounds at various concentrations were added. The plate was placed back into the incubator and cultured for an additional 7 days. At the time of compound addition, the T0 plate was measured using the CellTiter-Glo (CTG) kit (Promega, Cat. No. G7572) and recorded as RLU0. Following incubation, 75 µl of pre-thawed and room temperature-equilibrated CellTiter-Glo solution was added to each well. […] The results were processed according to Equation (2). […] Growth% = (RLUcompound−RLU0)/(RLUcontrol−RLU0) × 100% [formula]

The mark [2] stands for this setting: chinese hamster, inhibitory activity against hERG potassium channel current, CHO cells, whole cell patch-clamp, read-out: IC50.

T1 sequence (Q12809 whole entry): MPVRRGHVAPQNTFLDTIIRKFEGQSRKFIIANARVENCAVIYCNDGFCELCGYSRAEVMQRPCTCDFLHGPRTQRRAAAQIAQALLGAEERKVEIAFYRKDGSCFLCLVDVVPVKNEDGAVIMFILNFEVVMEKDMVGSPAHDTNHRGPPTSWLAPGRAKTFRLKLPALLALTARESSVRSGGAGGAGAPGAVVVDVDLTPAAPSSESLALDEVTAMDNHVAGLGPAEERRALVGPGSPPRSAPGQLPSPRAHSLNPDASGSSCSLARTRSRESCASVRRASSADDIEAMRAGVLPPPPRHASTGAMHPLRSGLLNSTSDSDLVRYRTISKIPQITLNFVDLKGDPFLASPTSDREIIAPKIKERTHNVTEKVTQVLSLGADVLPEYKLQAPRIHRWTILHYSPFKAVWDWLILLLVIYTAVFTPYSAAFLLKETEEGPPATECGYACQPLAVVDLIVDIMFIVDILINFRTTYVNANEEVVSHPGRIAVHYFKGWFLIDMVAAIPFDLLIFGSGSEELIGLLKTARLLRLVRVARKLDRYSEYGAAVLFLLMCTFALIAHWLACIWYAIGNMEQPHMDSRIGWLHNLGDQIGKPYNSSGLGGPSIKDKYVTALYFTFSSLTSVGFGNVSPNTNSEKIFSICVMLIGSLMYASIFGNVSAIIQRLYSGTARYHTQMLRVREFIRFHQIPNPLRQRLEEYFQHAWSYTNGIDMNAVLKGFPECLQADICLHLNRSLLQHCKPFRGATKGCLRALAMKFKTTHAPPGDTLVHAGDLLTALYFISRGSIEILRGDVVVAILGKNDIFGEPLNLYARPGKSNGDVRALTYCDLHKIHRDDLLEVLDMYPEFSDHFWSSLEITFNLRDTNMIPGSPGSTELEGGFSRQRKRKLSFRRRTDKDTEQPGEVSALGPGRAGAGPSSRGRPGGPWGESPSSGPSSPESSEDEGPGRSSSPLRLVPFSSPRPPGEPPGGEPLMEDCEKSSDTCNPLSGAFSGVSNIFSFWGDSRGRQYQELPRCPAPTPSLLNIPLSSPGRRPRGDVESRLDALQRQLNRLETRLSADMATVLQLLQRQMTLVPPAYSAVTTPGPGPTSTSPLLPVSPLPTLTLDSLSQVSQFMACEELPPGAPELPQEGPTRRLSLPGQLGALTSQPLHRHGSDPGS

As to `CC1(C)[C@H](NC(=O)c2ccc(N3CCC4(CC3)CC(CN3CCN5c6cc(F)c(C7CCC(=O)NC7=O)cc6CC[C@H]5C3)C4)cc2)C(C)(C)[C@H]1Oc1ccc(C#N)c2ncccc12` (some centres unmarked) [Compound 73], at hERG potassium channel (setting [2]), the IC50 is more than 40 µM. For the same molecule, at AR protein, the 50% degradation concentration (DC50) was less than 0.1 µM.

For `COc1cc(O[C@H]2C(C)(C)[C@H](NC(=O)c3ccc(N4CCC(CN5CCN6c7cc(F)c(C8CCC(=O)NC8=O)cc7CC[C@H]6C5)CC4)cc3)C2(C)C)ccc1C#N` (some centres unmarked) [Trifluoroacetate of compound 1], the IC50 on hERG potassium channel (chinese hamster, cho cells) is more than 40 µM. Moreover, the DC50 on AR protein was less than 0.1 µM.

On to `COc1cc(O[C@H]2C(C)(C)[C@H](NC(=O)c3ccc(N4CCC(CN5CCN6c7cc(F)c(C8CCC(=O)NC8=O)cc7CC[C@@H]6C5)CC4)cc3)C2(C)C)ccc1C#N` (some centres unmarked) [Compound 2], for which the F in data set [1] (vehicle 5% DMSO+ 5% Solutol+30% PEG-400+60% (20% SBE-β-CD)) is listed as 61.4+9.1%. For the same molecule, in data set [1] (in vivo, vehicle 5% DMSO+ 5% Solutol+30% PEG-400+60% (20% SBE-β-CD)), the AUC(0-t) is 6010 ± 889 ng·h/mL.

For `COc1cc(O[C@H]2C(C)(C)[C@H](NC(=O)c3ccc(N4CCC(CN5CCN6c7cc(F)c(N8CCC(=O)NC8=O)cc7CC[C@@H]6C5)CC4)cc3)C2(C)C)ccc1C#N` [Compound 28], the IC50 on hERG potassium channel was more than 40 µM.

For `COc1cc(O[C@H]2C(C)(C)[C@H](NC(=O)c3ccc(N4CCC(CN5CCN6c7cc(F)c(C8CCC(=O)NC8=O)cc7CC[C@H]6C5)CC4)cc3)C2(C)C)ccc1C#N` (some centres unmarked) [Compound 1], the concentration for 50% growth inhibition (GI50) in the data set on VCaP cells was less than 0.3 µM. The F in data set [1] (vehicle 5% DMSO+5% Solutol+90% (20% SBE-β-CD)) was determined as 46.5±8.6%. The same molecule gave an AUC(0-t) in data set [1] (in vivo, vehicle 5% DMSO+5% Solutol+90% (20% SBE-β-CD)) of 5490 ± 1010 ng·h/mL.

Take `COc1cc(O[C@H]2C(C)(C)[C@H](NC(=O)c3ccc(N4CCC(CN5CCN6c7cc(F)c(C(=O)NC8CCC(=O)NC8=O)cc7CC[C@@H]6C5)CC4)cc3)C2(C)C)ccc1C#N` (some centres unmarked) [Trifluoroacetate of compound 4]: the concentration for half-maximal inhibition (IC50) on hERG potassium channel (setting [2]) was more than 40 µM. For the same molecule, the DC50 on AR protein was less than 0.1 µM.

`CC1(C)[C@H](NC(=O)c2ccc(N3CCC(CN4CCN5c6cc(F)c(C(=O)N[C@H]7CCC(=O)NC7=O)cc6CC[C@@H]5C4)CC3)cc2)C(C)(C)[C@H]1Oc1ccc(C#N)c2ncccc12` [Compound 34]: the IC50 at hERG potassium channel (setting [2]) is more than 40 µM. Moreover, at AR protein, the half-maximal degradation concentration (DC50) is less than 0.1 µM.

At hERG potassium channel, `COc1cc(O[C@H]2C(C)(C)[C@H](NC(=O)c3ccc(N4CCC(CN5CCN6c7cc(F)c(C8CCC(=O)NC8=O)cc7CC[C@@H]6C5)CC4)cc3)C2(C)C)ccc1C#N` (some centres unmarked) [Trifluoroacetate of compound 2] came in with an IC50 of more than 40 µM. Moreover, the 50% degradation concentration (DC50) on AR protein was less than 0.1 µM.

For the molecule `COc1cc(O[C@H]2C(C)(C)[C@H](NC(=O)c3ccc(N4CCC5(CC4)CC(N4CCN6c7cc(F)c(N8CCC(=O)NC8=O)cc7CC[C@@H]6C4)C5)cc3)C2(C)C)ccc1C#N` [Compound 79], at hERG potassium channel (human, CHO cells stably expressing hERG potassium channel, inhibitory activity against hERG potassium channel current, CHO cells, whole cell patch-clamp, read-out: IC50), the IC50 was more than 40 µM. In the data set with VCaP cells, the GI50 is less than 0.3 µM. Also, the DC50 on AR protein is less than 0.1 µM. The AUC(0-t) in data set [1] (male, SD, plasma, vehicle 5% DMSO+5% Solutol+10% PEG400+80% (20% SBE-β-CD)) was 6970 ng·h/mL.

In the case of `CC1(C)[C@H](NC(=O)c2ccc(N3CCC(CN4CCN5c6cc(F)c(C7CCC(=O)NC7=O)cc6CC[C@H]5C4)CC3)cc2)C(C)(C)[C@H]1Oc1ccc(C#N)c(C2CC2)c1` (some centres unmarked) [Compound 118], at hERG potassium channel (inhibitory activity against hERG potassium channel current, CHO cells, whole cell patch-clamp, read-out: IC50), the half-maximal inhibitory concentration (IC50) was more than 40 µM. In addition, the Degradation rate % on AR protein (AR protein in VCaP cells, concentration of 30 nM, 24 hours) is given as more than 70%.

Regarding `COc1cc(O[C@H]2C(C)(C)[C@H](NC(=O)c3ccc(N4CCC(CN5CCN6c7cc(F)c(C(=O)NC8CCC(=O)NC8=O)cc7CC[C@H]6C5)CC4)cc3)C2(C)C)ccc1C#N` (some centres unmarked) [Trifluoroacetate of compound 3], the IC50 at hERG potassium channel (setting [2]) is more than 40 µM. The DC50 on AR protein is less than 0.1 µM.

For the molecule `CC1(C)[C@H](NC(=O)c2ccc(N3CCC(CN4CCN5c6cc(F)c(C(=O)N[C@H]7CCC(=O)NC7=O)cc6CC[C@H]5C4)CC3)cc2)C(C)(C)[C@H]1Oc1ccc(C#N)c2ncccc12` [Compound 35], the IC50 on hERG potassium channel (setting [2]) is more than 40 µM. The DC50 on AR protein is less than 0.1 µM.
